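Values below derive from 48-hour exposures of cells grown in 96-well plates, with endpoints linearly interpolated between the two concentrations bracketing the appropriate inhibition level. At the GI50, growth is halved. TGI marks complete inhibition of growth.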
Experiments:
Experiment in all cases: DTP human tumour cell line panel, 48 h
COLO 205 colon = test system: COLO 205 colon
NCI-H460 lung = test system: NCI-H460 lung
KM12 colon = test system: KM12 colon
NCI-H522 lung = test system: NCI-H522 lung
HCC-2998 colon = test system: HCC-2998 colon
OVCAR-4 ovarian = test system: OVCAR-4 ovarian
ACHN renal = test system: ACHN renal
A549 NSCLC = test system: A549 NSCLC
PC-3 prostate = test system: PC-3 prostate
MOLT-4 leukemia = test system: MOLT-4 leukemia
SW-620 colon = test system: SW-620 colon
EKVX NSCLC = test system: EKVX NSCLC
MDA-MB-435 = test system: MDA-MB-435
SN12C renal = test system: SN12C renal
HL-60(TB) leukemia = test system: HL-60(TB) leukemia
UO-31 renal = test system: UO-31 renal
HCT-15 colon = test system: HCT-15 colon
NCI-H23 lung = test system: NCI-H23 lung
OVCAR-3 ovarian = test system: OVCAR-3 ovarian
SF-539 CNS = test system: SF-539 CNS
HS 578T breast = test system: HS 578T breast
K-562 leukemia = test system: K-562 leukemia
UACC-257 melanoma = test system: UACC-257 melanoma
HOP-92 NSCLC = test system: HOP-92 NSCLC
CAKI-1 renal = test system: CAKI-1 renal
HT29 colon = test system: HT29 colon
OVCAR-5 ovarian = test system: OVCAR-5 ovarian
SK-MEL-28 melanoma = test system: SK-MEL-28 melanoma
SK-MEL-5 melanoma = test system: SK-MEL-5 melanoma
NCI-H226 lung = test system: NCI-H226 lung
RPMI-8226 leukemia = test system: RPMI-8226 leukemia
DU-145 prostate = test system: DU-145 prostate
UACC-62 melanoma = test system: UACC-62 melanoma
M14 melanoma = test system: M14 melanoma
NCI/ADR-RES ovarian = test system: NCI/ADR-RES ovarian
HCT-116 colon = test system: HCT-116 colon
T-47D breast = test system: T-47D breast
MDA-MB-231 breast = test system: MDA-MB-231 breast
HOP-62 NSCLC = test system: HOP-62 NSCLC
SF-268 CNS = test system: SF-268 CNS
SR leukemia = test system: SR leukemia
RXF 393 renal = test system: RXF 393 renal
U251 CNS = test system: U251 CNS
IGROV1 ovarian = test system: IGROV1 ovarian
MCF7 breast = test system: MCF7 breast
786-0 renal = test system: 786-0 renal
A498 renal = test system: A498 renal
BT-549 breast = test system: BT-549 breast
TK-10 renal = test system: TK-10 renal
SF-295 CNS = test system: SF-295 CNS
CCRF-CEM leukemia = test system: CCRF-CEM leukemia
SK-MEL-2 melanoma = test system: SK-MEL-2 melanoma
SK-OV-3 ovarian = test system: SK-OV-3 ovarian
SNB-19 CNS = test system: SNB-19 CNS
OVCAR-8 ovarian = test system: OVCAR-8 ovarian
LOX IMVI melanoma = test system: LOX IMVI melanoma

Work on `CC(C)(C)OC(=O)N(CCCN)CCCCN` yielded a TGI (COLO 205 colon) of over 100 µM, a TGI (NCI-H460 lung) of over 100 µM and a TGI (KM12 colon) of over 100 µM. For the same compound, the TGI (NCI-H522 lung) was over 100 µM, the TGI (HCC-2998 colon) was over 100 µM and the TGI (OVCAR-4 ovarian) was over 100 µM. The TGI (ACHN renal) was over 100 µM, the TGI (A549 NSCLC) was over 100 µM and the TGI (PC-3 prostate) was over 100 µM. For the same compound, the TGI (MOLT-4 leukemia) was over 100 µM, the TGI (SW-620 colon) was over 100 µM and the TGI (EKVX NSCLC) was over 100 µM. The TGI (MDA-MB-435) was over 100 µM, the TGI (SN12C renal) was over 100 µM and the TGI (HL-60(TB) leukemia) was over 100 µM. For the same compound, the TGI (UO-31 renal) was over 100 µM, the TGI (HCT-15 colon) was over 100 µM and the TGI (NCI-H23 lung) was over 100 µM. The TGI (OVCAR-3 ovarian) was over 100 µM, the TGI (SF-539 CNS) was over 100 µM and the TGI (HS 578T breast) was over 100 µM. It also gave a TGI (K-562 leukemia) of over 100 µM, a TGI (UACC-257 melanoma) of over 100 µM and a TGI (HOP-92 NSCLC) of over 100 µM. It also gave a TGI (CAKI-1 renal) of over 100 µM, a TGI (HT29 colon) of over 100 µM and a TGI (OVCAR-5 ovarian) of over 100 µM. It also gave a TGI (SK-MEL-28 melanoma) of over 100 µM, a TGI (SK-MEL-5 melanoma) of over 100 µM and a TGI (NCI-H226 lung) of over 100 µM. For the same compound, the TGI (RPMI-8226 leukemia) was over 100 µM, the TGI (DU-145 prostate) was over 100 µM and the TGI (UACC-62 melanoma) was over 100 µM. For the same compound, the TGI (M14 melanoma) was over 100 µM, the TGI (NCI/ADR-RES ovarian) was over 100 µM and the TGI (HCT-116 colon) was over 100 µM. For the same compound, the TGI (T-47D breast) was over 100 µM, the TGI (MDA-MB-231 breast) was over 100 µM and the TGI (HOP-62 NSCLC) was over 100 µM. For the same compound, the TGI (SF-268 CNS) was over 100 µM, the TGI (SR leukemia) was over 100 µM and the TGI (RXF 393 renal) was over 100 µM. For the same compound, the TGI (U251 CNS) was over 100 µM, the TGI (IGROV1 ovarian) was over 100 µM and the TGI (MCF7 breast) was over 100 µM. For the same compound, the TGI (786-0 renal) was over 100 µM, the TGI (A498 renal) was over 100 µM and the TGI (BT-549 breast) was over 100 µM. It also gave a TGI (TK-10 renal) of over 100 µM, a TGI (SF-295 CNS) of over 100 µM and a TGI (CCRF-CEM leukemia) of over 100 µM. It also gave a TGI (SK-MEL-2 melanoma) of over 100 µM, a TGI (SK-OV-3 ovarian) of over 100 µM and a TGI (SNB-19 CNS) of over 100 µM. The TGI (OVCAR-8 ovarian) was over 100 µM.

With `COc1ccc(C2NC(=O)c3cc4c(cc3N2)OCO4)cc1` (configuration not stated) the GI50 (COLO 205 colon) was 0.408 µM, the TGI (COLO 205 colon) was 3.56 µM and the GI50 (NCI-H460 lung) was 0.341 µM. It also gave a TGI (NCI-H460 lung) of over 100 µM, a GI50 (KM12 colon) of 0.557 µM and a TGI (KM12 colon) of over 100 µM. It also gave a GI50 (NCI-H522 lung) of 1.87 µM, a TGI (NCI-H522 lung) of 6.58 µM and a GI50 (HCC-2998 colon) of 1.07 µM. The TGI (HCC-2998 colon) was 7.14 µM, the GI50 (OVCAR-4 ovarian) was 5.52 µM and the TGI (OVCAR-4 ovarian) was over 100 µM. For the same compound, the GI50 (ACHN renal) was 4.1 µM, the TGI (ACHN renal) was over 100 µM and the GI50 (A549 NSCLC) was 0.678 µM. For the same compound, the TGI (A549 NSCLC) was over 100 µM, the GI50 (PC-3 prostate) was 2.81 µM and the TGI (PC-3 prostate) was over 100 µM. For the same compound, the GI50 (MOLT-4 leukemia) was 2.54 µM, the TGI (MOLT-4 leukemia) was over 100 µM and the GI50 (SW-620 colon) was 0.432 µM. The TGI (SW-620 colon) was over 100 µM, the GI50 (EKVX NSCLC) was 2.42 µM and the TGI (EKVX NSCLC) was over 100 µM. The GI50 (MDA-MB-435) was 0.215 µM, the TGI (MDA-MB-435) was 0.543 µM and the GI50 (SN12C renal) was 0.481 µM. The TGI (SN12C renal) was over 100 µM, the GI50 (HL-60(TB) leukemia) was 0.345 µM and the TGI (HL-60(TB) leukemia) was 1.85 µM. For the same compound, the GI50 (UO-31 renal) was 13.5 µM, the TGI (UO-31 renal) was over 100 µM and the GI50 (HCT-15 colon) was 0.504 µM. It also gave a TGI (HCT-15 colon) of over 100 µM, a GI50 (NCI-H23 lung) of 1.25 µM and a TGI (NCI-H23 lung) of over 100 µM. It also gave a GI50 (OVCAR-3 ovarian) of 0.791 µM, a TGI (OVCAR-3 ovarian) of 3.52 µM and a GI50 (LOX IMVI melanoma) of 0.821 µM. The TGI (LOX IMVI melanoma) was over 100 µM, the GI50 (SF-539 CNS) was 1.01 µM and the TGI (SF-539 CNS) was 9.9 µM. The GI50 (HS 578T breast) was 1.42 µM, the TGI (HS 578T breast) was over 100 µM and the GI50 (HOP-92 NSCLC) was 11.4 µM. The TGI (HOP-92 NSCLC) was over 100 µM, the GI50 (CAKI-1 renal) was 0.466 µM and the TGI (CAKI-1 renal) was over 100 µM. The GI50 (HT29 colon) was 0.856 µM, the TGI (HT29 colon) was over 100 µM and the GI50 (OVCAR-5 ovarian) was 1.51 µM. The TGI (OVCAR-5 ovarian) was over 100 µM, the GI50 (SK-MEL-28 melanoma) was 0.719 µM and the TGI (SK-MEL-28 melanoma) was over 100 µM. The GI50 (SK-MEL-5 melanoma) was 0.297 µM, the TGI (SK-MEL-5 melanoma) was 50.5 µM and the GI50 (NCI-H226 lung) was 0.389 µM. For the same compound, the TGI (NCI-H226 lung) was 6.09 µM, the TGI (RPMI-8226 leukemia) was over 100 µM and the GI50 (DU-145 prostate) was 0.807 µM. It also gave a TGI (DU-145 prostate) of over 100 µM, a GI50 (UACC-62 melanoma) of 0.571 µM and a TGI (UACC-62 melanoma) of over 100 µM. The GI50 (M14 melanoma) was 0.927 µM, the TGI (M14 melanoma) was over 100 µM and the GI50 (NCI/ADR-RES ovarian) was 0.508 µM. The TGI (NCI/ADR-RES ovarian) was 3.86 µM, the GI50 (HCT-116 colon) was 0.511 µM and the TGI (HCT-116 colon) was over 100 µM. For the same compound, the GI50 (T-47D breast) was 0.683 µM, the TGI (T-47D breast) was over 100 µM and the GI50 (MDA-MB-231 breast) was 3.03 µM. It also gave a TGI (MDA-MB-231 breast) of over 100 µM, a GI50 (HOP-62 NSCLC) of 1.02 µM and a TGI (HOP-62 NSCLC) of over 100 µM. It also gave a GI50 (SF-268 CNS) of 2 µM, a TGI (SF-268 CNS) of over 100 µM and a GI50 (SR leukemia) of 0.415 µM. It also gave a TGI (SR leukemia) of over 100 µM, a GI50 (RXF 393 renal) of 0.287 µM and a TGI (RXF 393 renal) of 1.61 µM. For the same compound, the GI50 (U251 CNS) was 0.849 µM, the TGI (U251 CNS) was over 100 µM and the GI50 (IGROV1 ovarian) was 4.92 µM. It also gave a TGI (IGROV1 ovarian) of over 100 µM, a GI50 (MCF7 breast) of 0.339 µM and a TGI (MCF7 breast) of over 100 µM. The GI50 (786-0 renal) was 2.38 µM, the TGI (786-0 renal) was over 100 µM and the GI50 (A498 renal) was 0.164 µM. For the same compound, the TGI (A498 renal) was 2.95 µM, the GI50 (BT-549 breast) was 16.5 µM and the TGI (BT-549 breast) was over 100 µM. For the same compound, the GI50 (TK-10 renal) was 19.3 µM, the TGI (TK-10 renal) was over 100 µM and the GI50 (SF-295 CNS) was 0.704 µM. For the same compound, the TGI (SF-295 CNS) was over 100 µM, the GI50 (CCRF-CEM leukemia) was 0.868 µM and the TGI (CCRF-CEM leukemia) was over 100 µM. The GI50 (SK-MEL-2 melanoma) was 2.84 µM, the TGI (SK-MEL-2 melanoma) was over 100 µM and the GI50 (SK-OV-3 ovarian) was 0.499 µM. The TGI (SK-OV-3 ovarian) was 7.36 µM, the GI50 (SNB-19 CNS) was 0.966 µM and the TGI (SNB-19 CNS) was over 100 µM. The GI50 (OVCAR-8 ovarian) was 1.63 µM and the TGI (OVCAR-8 ovarian) was over 100 µM.

Reference: PubChem BioAssay (NCI)
